Measurements reported in US12279617B2, “Agricultural and horticultural chemical agent containing new imidazopyridine-2-carboxamide derivative as active ingredient” (AGRO-KANESHO CO., LTD., priority 2019, dated 2025).

What was measured:
Type in all cases: in vivo
[1] = system: Spodoptera litura (Fabricius); experiment: Larvicide test for Spodoptera litura (Fabricius); conditions: 500 ppm emulsion agent; artificial feed immersed about 60 seconds; 7 days after insect release; 25° C.; agony insects counted as dead
From the text: A water diluted solution of an emulsion agent (500 ppm) prepared as in Formulation Example 1 was put in a 120-mL polyethylene cup, and artificial feed Insecta LF (Nosan Corporation, diameter: 5 cm) sliced into 5 mm thickness and cut into ¼ was immersed in the polyethylene cup for about 60 seconds. After the immersion treatment, the resultant artificial feed piece was put in another 120-mL polyethylene cup (diameter: 8 cm, height: 4 cm) with filter paper (diameter: 55 mm) on the bottom together with test insects, and the cup was covered with a lid and was then kept in a thermostat chamber of 25° C. Seven days after the insect release, the life-and-death and the agony of the larvae were investigated, and the insecticidal rate (%) when agony insects were included in dead insects was determined. Incidentally, the test was carried out by using one cup in each ward. Insecticidal rate (%)=[number of dead larvae)/(number of test larvae)]×100

Plutella xylostella = experiment: Insecticidal effect test for Plutella xylostella of Chinese cabbage; conditions: 500 ppm emulsion agent sprayed on Chinese cabbage seedlings; 3rd instar larvae; 5 days after insect release; 25° C.; agony insects counted as dead
Experimental: A sufficient amount of a water diluted solution of an emulsion agent (500 ppm) prepared as in Formulation Example 1 was sprayed with an air brush to the leaves of Chinese cabbage seedlings planted in pots raised for 2 weeks after sowing. The liquid agent was air dried, and five 3rd instar larvae of Plutella xylostella were then inoculated per pot and were kept in a thermostat chamber of 25° C. Five days after the insect release, the life-and-death and the agony of the larvae were investigated, and the insecticidal rate (%) when agony insects were included in dead insects was determined. Incidentally, the test was carried out by using one seedling in each ward. Insecticidal rate (%)=[number of dead larvae)/(number of test larvae)]×100

[2] = system: Aculops lycopersici Massee; experiment: Adult-killing test for Aculops lycopersici Massee (tomato rust mites); conditions: 500 ppm emulsion agent sprayed 2.0 mL per cup on tomato leaf disks; 3 days after treatment; 25° C.; scored on four scales (100, 80, 50, 0)
From the text: A lid provided with a hole (diameter: about 5 mm) at the center was put on a 430-mL polyethylene cup containing water. Circular filter paper with a diameter of 6.5 cm which was cut such that a strip-shaped filter paper piece having a width of about 5 mm was formed was put on the lid, and the filter paper piece was inserted into the hole of the lid so that the tip of the piece extends downward from the hole and immersed in the water in the cup. Furthermore, absorbent cotton was put on the filter paper such that the water in the cup was always supplied to the absorbent cotton. Three leaf disks (1 cm×1 cm) of leaflets of tomato in the early stage of true leaf development were put on the absorbent cotton such that the back of the leaves in the disk form was on top, and small pieces of a leaf parasitized by tomato rust mites were inoculated on the leaves in the disk form. After 24 hours from the inoculation, the small pieces were removed, and the cup was placed in an acrylic cylinder having a height of 50 cm and a diameter of 10 cm. A water diluted solution of an emulsion agent (500 ppm) prepared as in Formulation Example 1 was sprayed in an amount of 2.0 mL per cup using an air brush. After the spraying, the cup was kept in a thermostat chamber of 25° C. Three days after the treatment, the control rate was evaluated on four scales: 100 (control rate: 100%), 80 (control rate: 99% to 80%), 50 (control rate: 79% to 50%), and 0 (control rate: less than 50%), and the next-generation density suppression rate was calculated based on the results by the following equation. Incidentally, the test was carried out by using one cup in each ward. Control rate=(A×100+B×80+C×50)/(A+B+C+D) A: the number of disks for 100, B: the number for disks of 80, C: the number for disks of 50, D: the number of disks for 0.

SMILES: CCSc1c(C(=O)N(COC)c2ccc(C(F)(F)F)cc2)nc2ccc(C(F)(F)F)cn12 [A-13, N-(methoxymethyl)-N-{4-(trifluoromethyl)phenyl}-3-(ethylthio)-6-(trifluoromethyl)imidazo[1,2-a]pyridine-2-carboxamide]
- insecticidal rate [1]: 100%
- insecticidal rate (Plutella xylostella): 100%

SMILES: CC[S+]([O-])c1c(C(=O)N(COC)c2ccc(C(F)(F)F)cc2)nc2ccc(C(F)(F)F)cn12 (stereo not drawn) [A-14, N-(methoxymethyl)-N-{4-(trifluoromethyl)phenyl}-3-(ethylsulfinyl)-6-(trifluoromethyl)imidazo[1,2-a]pyridine-2-carboxamide]
- control rate [2]: 100%
- insecticidal rate [1]: 100%
- insecticidal rate (Plutella xylostella): 100%

SMILES: CCS(=O)(=O)c1c(C(=O)N(COC)c2ccc(C(F)(F)F)cc2)nc2ccc(C(F)(F)F)cn12 [A-15, N-(methoxymethyl)-N-{4-(trifluoromethyl)phenyl}-3-(ethylsulfonyl)-6-(trifluoromethyl)imidazo[1,2-a]pyridine-2-carboxamide]
- control rate [2]: 100%
- insecticidal rate [1]: 100%
- insecticidal rate (Plutella xylostella): 100%

SMILES: CCOCN(C(=O)c1nc2cccc(C(F)(F)F)n2c1S(=O)(=O)CC)c1ccc(C(F)(F)F)cc1 [A-18]
- insecticidal rate [1]: 100%
- insecticidal rate (Plutella xylostella): 100%

SMILES: CCOCN(C(=O)c1nc2cc(C(F)(F)F)ccn2c1[S+]([O-])CC)c1ccc(C(F)(F)F)cc1 (stereo not drawn) [A-20]
- insecticidal rate [1]: 100%
- insecticidal rate (Plutella xylostella): 100%

SMILES: CCOCN(C(=O)c1nc2cc(C(F)(F)F)ccn2c1S(=O)(=O)CC)c1ccc(C(F)(F)F)cc1 [A-21]
- insecticidal rate [1]: 100%
- insecticidal rate (Plutella xylostella): 100%

SMILES: CCOCN(C(=O)c1nc2c(C(F)(F)F)cccn2c1SCC)c1ccc(C(F)(F)F)cc1 [A-22]
- insecticidal rate [1]: 100%
- insecticidal rate (Plutella xylostella): 100%

SMILES: CCOCN(C(=O)c1nc2ccc(Cl)cn2c1SCC)c1ccc(C(F)(F)F)cc1 [A-25]
- control rate [2]: 100%
- insecticidal rate [1]: 100%
- insecticidal rate (Plutella xylostella): 100%

SMILES: CCOCN(C(=O)c1nc2ccc(Cl)cn2c1S(=O)(=O)CC)c1ccc(C(F)(F)F)cc1 [A-27]
- control rate [2]: 100%
- insecticidal rate [1]: 100%
- insecticidal rate (Plutella xylostella): 100%

SMILES: CCOCN(C(=O)c1nc2ccc(C(F)(F)F)cn2c1SCC)c1ccccc1C(F)(F)F [A-31]
- insecticidal rate (Plutella xylostella): 100%

SMILES: CCOCN(C(=O)c1nc2ccc(C(F)(F)F)cn2c1S(=O)(=O)CC)c1ccccc1C(F)(F)F [A-33]
- control rate [2]: 100%
- insecticidal rate [1]: 100%
- insecticidal rate (Plutella xylostella): 100%

SMILES: CCOCN(C(=O)c1nc2ccc(C(F)(F)F)cn2c1SCC)c1ccc(SC(F)(F)F)cc1 [A-70]
- control rate [2]: 100%
- insecticidal rate [1]: 100%
- insecticidal rate (Plutella xylostella): 100%

SMILES: CCOCN(C(=O)c1nc2ccc(C(F)(F)F)cn2c1S(=O)(=O)CC)c1ccc(SC(F)(F)F)cc1 [A-72]
- control rate [2]: 100%
- insecticidal rate [1]: 100%
- insecticidal rate (Plutella xylostella): 100%

SMILES: CCOCN(C(=O)c1nc2ccc(C(F)(F)F)cn2c1S(=O)(=O)CC)c1ccc([S+]([O-])C(F)(F)F)cc1 (stereo not drawn) [A-75]
- control rate [2]: 100%
- insecticidal rate [1]: 100%
- insecticidal rate (Plutella xylostella): 100%

SMILES: CCOCN(C(=O)c1nc2ccc(C(F)(F)F)cn2c1SCC)c1ccc(C(F)(F)F)nc1 [A-91]
- insecticidal rate [1]: 100%
- insecticidal rate (Plutella xylostella): 100%

SMILES: CCOCN(C(=O)c1nc2ccc(C(F)(F)F)cn2c1S(=O)(=O)CC)c1ccc(C(F)(F)F)cn1 [A-96]
- control rate [2]: 100%
- insecticidal rate [1]: 100%
- insecticidal rate (Plutella xylostella): 100%

SMILES: CCS(=O)(=O)c1c(C(=O)N(CSC)c2ccc(C(F)(F)F)cc2)nc2ccc(C(F)(F)F)cn12 [A-99]
- insecticidal rate [1]: 100%
- insecticidal rate (Plutella xylostella): 100%

SMILES: CCS(=O)(=O)c1c(C(=O)N(CS(C)(=O)=O)c2ccc(C(F)(F)F)cc2)nc2ccc(C(F)(F)F)cn12 [A-102]
- control rate [2]: 100%
- insecticidal rate [1]: 100%
- insecticidal rate (Plutella xylostella): 100%

SMILES: CCS(=O)(=O)c1c(C(=O)N(C)c2ccc(C(F)(F)F)cc2)nc2ccc(C(F)(F)F)cn12 [Compound A, reference compound]
- control rate [2]: 100%
- insecticidal rate [1]: 90%
- insecticidal rate (Plutella xylostella): 90%

SMILES: CCOCN(C(=O)Cc1ccncc1S(=O)(=O)CC)c1ccc(C(F)(F)F)cc1 [Compound B, reference compound]
- control rate [2]: 100%
- insecticidal rate [1]: 0%
- insecticidal rate (Plutella xylostella): 50%
